Laboratory results: patent US20210085711A1 (Japan Tobacco Inc., priority 2017, published 2021)

Tests used:
[1] = tested on: patients with hypermenorrhea and/or patients with hypermenorrhea-associated gynecologic diseases (iron-deficiency anemia patients); experiment: Phase II clinical trial of JTT-751: serum ferritin value; format: in vivo, human
Method: (§1) This test was a three-stage safety and efficacy clinical trial at multi-facilities. The first stage was a pre-observation period (Day −40 to Day −1), the second stage was an administration period (Day 1 to Day 48) (efficacy and safety evaluation period), and the third stage was a post-observation period (Day 49 to Day 63) (efficacy and safety evaluation period). The safety evaluation and efficacy evaluation were performed by multi-facility collaboration, placebo control, random allocation, double-blind trial, and parallel group comparison test.
(1) Japanese patients who are 20 or more and less than 65 years old at the time of agreement and can visit an outpatient clinic (2) Patients who have an Hb value (measured using HemoCue® Hb 201 DM analyzer in the institute of clinical practice) of 7.0 g/dL or more and less than 11.0 g/dL on both the observation start date and Week 0, and the difference between the two days is 1.0 g/dL or less (3) Patients with a TIBC of 360 μg/dL or more or a serum ferritin value of less than 12 ng/mL on the observation start date
The administration period of the trial drug is seven weeks which starts from the next day of the Week 0 visit to the day before the Week 7 visit, provided that the trial drug is not taken on the scheduled Week 3 visit.
(2) Subsidiary evaluation items 1) Erythrocyte-related examination values and amount of change from Week 0 at each observation date 2) Iron-related test values and amount of change from Week 0 at each observation date 3) Achievement rate of target Hb value (female; 12.0 g/dL or more, male; 13.0 g/dL or more) at each observation date 4) Achievement rate of 1.0 g/dL or more and achievement rate of 2.0 g/dL or more in Hb value improvement from Week 0 at each observation date 5) Average daily change of Hb value from Week 0 to each observation date
The blood hemoglobin value (Hb), the serum iron level, the serum ferritin value, the total iron-binding capacity (TIBC) and the transferrin saturation rate (TSAT), and the mean corpuscular volume (MCV) were each examined at the observation start date, Week 0, Week 3, Week 7, the end of administration and the consultation at nine weeks after Week 0; the hepcidin concentration (Hepcidin 25) and the serum soluble transferrin receptor concentration (sTfR) were each examined on Week 0, Week 3 and Week 7 and at the end of administration; and the C-terminal FGF23 value (cFGF23) and the intact FGF23 value (iFGF23) were each examined on Week 0 and Week 7 and at the end of administration.

[2] = tested on: patients with hypermenorrhea-associated gynecologic diseases; experiment: Phase II clinical trial of JTT-751: safety evaluation (harmful events) in combined use with medicaments affecting the amount of menstrual bleeding; format: in vivo, human; settings: combined with carbazochrome sodium sulfonate, transamin or ethynylestradiol combinations
Method: as §1, with “test. […]” for “test.”
(1) Regarding the subjective symptoms and objective findings, when “expression of new abnormality” was observed between the start of the trial drug administration and nine weeks after Week 0 or at the end of examination after discontinuation as compared to before the start of the trial drug administration. […] (3) Regarding clinical examination, vital sign and standard 12-induced electrocardiogram, when the principal investigator or subinvestigator determined that an abnormality newly recognized between the start of the trial drug administration and nine weeks after Week 0 or at the end of examination after discontinuation, or aggravation of abnormality observed from before the start of the trial drug administration was a clinical problem. […]

[3] = 250 mg/day, 9 weeks after Week 0
[4] = 250 mg/day, End of administration
[5] = 250 mg/day, Week 3 (Week 0 not given)
[6] = 500 mg/day, 9 weeks after Week 0
[7] = 500 mg/day, End of administration
[8] = 500 mg/day, Week 3 (Week 0 not given)
[9] = 1000 mg/day, 9 weeks after Week 0
[10] = 1000 mg/day, End of administration
[11] = 1000 mg/day, Week 3 (Week 0 not given)
[12] = 1500 mg/day, 9 weeks after Week 0
[13] = 1500 mg/day, End of administration
[14] = 1500 mg/day, Week 3 (Week 0 not given)

Ferric citrate [JTT-751]
Ferritin, Mean [1, 3]: 2.88 ng/mL
Ferritin, Median [1, 3]: 2.60 ng/mL
Ferritin, Mean [1, 4]: 11.38 ng/mL
Ferritin, Median [1, 4]: 11.45 ng/mL
Ferritin, Mean [1, 5]: 11.16 ng/mL
Ferritin, Median [1, 5]: 7.70 ng/mL
Ferritin, Mean ([1]; 250 mg/day, Week 7): 11.38 ng/mL
Ferritin, Median ([1]; 250 mg/day, Week 7): 11.45 ng/mL
Ferritin, Mean [1, 6]: 4.28 ng/mL
Ferritin, Median [1, 6]: 3.60 ng/mL
Ferritin, Mean [1, 7]: 16.12 ng/mL
Ferritin, Median [1, 7]: 14.30 ng/mL
Ferritin, Mean [1, 8]: 15.26 ng/mL
Ferritin, Median [1, 8]: 12.40 ng/mL
Ferritin, Mean ([1]; 500 mg/day, Week 7): 16.12 ng/mL
Ferritin, Median ([1]; 500 mg/day, Week 7): 14.30 ng/mL
Ferritin, Mean [1, 9]: 7.51 ng/mL
Ferritin, Median [1, 9]: 7.20 ng/mL
Ferritin, Mean [1, 10]: 17.02 ng/mL
Ferritin, Median [1, 10]: 16.30 ng/mL
Ferritin, Mean [1, 11]: 26.96 ng/mL
Ferritin, Median [1, 11]: 23.20 ng/mL
Ferritin, Mean ([1]; 1000 mg/day, Week 7): 17.02 ng/mL
Ferritin, Median ([1]; 1000 mg/day, Week 7): 16.30 ng/mL
Ferritin, Mean [1, 12]: 5.83 ng/mL
Ferritin, Median [1, 12]: 5.35 ng/mL
Ferritin, Mean [1, 13]: 17.38 ng/mL
Ferritin, Median [1, 13]: 16.60 ng/mL
Ferritin, Mean [1, 14]: 20.43 ng/mL
Ferritin, Median [1, 14]: 22.20 ng/mL
Ferritin, Mean ([1]; 1500 mg/day, Week 7): 17.38 ng/mL
Ferritin, Median ([1]; 1500 mg/day, Week 7): 16.60 ng/mL
serum ferritin value (printed: serum iron level), increased to a normal value ([1]; continuous administration from Week 0 to Week 3): 12 to 30 ng/mL
harmful event caused by combined use with medicaments affecting the amount of menstrual bleeding [2]: no harmful event caused by the combined use was reported
